Values joined by “and” are separate entries in the source; they are usually repeats but may differ in a detail not shown here. Identical values can stand only once. Counter-ions that a name gives are not always drawn. Like-named read-outs stand apart in the source and are kept apart here.
How the values were obtained:
[1] = target: serotonin reuptake transporter (SERT) (Homo sapiens, UniProt P31645); assay: Reuptake transporter inhibition, SERT; type: biochemical
Description: (§1) and is an unbalanced triple reuptake inhibitor with the most potency towards the norepinephrine reuptake transporter (NET), one-sixth as much towards the dopamine reuptake transporter (DAT), and one-fourteenth as much towards the serotonin reuptake transporter (SERT).

[2] = Biopharmaceutics classification (solubility, permeability); type: physicochemical
Description: Described herein are methods of using centanafadine (CTN) or a pharmaceutically acceptable salt thereof for the treatment of central nervous system disorders. […] As used herein, CTN should be understood to refer to centanafadine, while pharmaceutically acceptable salts thereof are also considered in addition to or as one or more alternatives to CTN in every method, use, and formulation described herein, unless explicitly stated otherwise. Centanafadine [CAS 924012-43-1], also known chemically as (1R,5S)-1-(naphthalen-2-yl)-3-azabicyclo[3.1.0]hexane or (+)-1-(naphthalen-2-yl)-3-azabicyclo[3.1.0]hexane, has the following structure: […]

[3] = Safety and tolerability (adverse events); conditions: in vivo
[4] = target: norepinephrine reuptake transporter (NET) (Homo sapiens, UniProt P23975); assay: Reuptake transporter inhibition, NET; type: biochemical; conditions: relative among NET, DAT, SERT
Description: as §1

adult subjects with MDD [5] = assay: Phase 2 trial, centanafadine XR as adjunct to escitalopram in MDD (Example 2); type: in vivo, human
Description: Inclusion and Exclusion criteria are the same as Example 1. In addition, subjects who are taking escitalopram or citalopram at the time of screening, have been exposed to escitalopram or citalopram in their current MDE, or have reported an inadequate response to an adequate dose/duration of escitalopram or citalopram in the past, are also excluded.
All subjects receive either escitalopram monotherapy, centanafadine QD XR capsules+escitalopram (combination therapy), or matching placebo, for 6 weeks.
For day 1, the escitalopram tablet is a 10 mg QD dose. At Week 1, dosing increases to 20 mg QD for the remainder of subject participation in the trial.
Subjects assigned to receive escitalopram monotherapy receive a 10 mg QD dose at Day 1. At Week 1, dosing increases to 20 mg QD for the remainder of subject participation in the trial. Dose reductions are not permitted.

[6] = target: dopamine reuptake transporter (DAT) (Homo sapiens, UniProt Q01959); assay: Reuptake transporter inhibition, DAT; type: biochemical
Description: as §1

adult subjects with MDD [7] = assay: Phase 2 trial, centanafadine XR monotherapy in MDD (Example 1); conditions: 328.8 mg once daily XR
[8] = Plasma pharmacokinetics of CTN HCl formulation, 164.4 mg or 328.8 mg, First Day and Fifth Day (Table 12); type: in vivo, human; conditions: for AUC ratio / Cmax ratio: Fifth Day/First Day; for Tmax: n = 8, median; for Cmax / AUC(0-t) / concentration at 1 h / concentration at 12 h / concentration at 16 h / AUC(0-inf): n = 8, mean; for AUC(0-t): read-out: AUC0-24 h; for concentration at 1 h: read-out: C1 hr; for concentration at 12 h: read-out: C12 hr; for concentration at 16 h: read-out: C16 hr
Experimental: The plasma pharmacokinetics from a CTN HCl formulation having a dose of 164.4 mg or 328.8 mg can be as in Table 12.

[9] = Plasma pharmacokinetics of a CTN HCl formulation, 164.4 mg dose (Table 11); type: in vivo, human; conditions: for Tmax: median
Experimental: The plasma pharmacokinetics from a CTN HCl formulation having a dose of 164.4 mg can be as in Table 11.

[10] = human, plasma, 164.4 mg, Fifth Day
[11] = human, plasma, 164.4 mg, First Day
[12] = human, plasma, 328.8 mg, First Day
[13] = human, plasma, oral, 164.4 mg, Fifth Day
[14] = human, plasma, oral, 164.4 mg, First Day
[15] = human, plasma, oral, 328.8 mg, Fifth Day
[16] = human, plasma, oral, 328.8 mg, First Day

serotonin reuptake transporter (SERT), sequence (P31645 whole entry, species assumed): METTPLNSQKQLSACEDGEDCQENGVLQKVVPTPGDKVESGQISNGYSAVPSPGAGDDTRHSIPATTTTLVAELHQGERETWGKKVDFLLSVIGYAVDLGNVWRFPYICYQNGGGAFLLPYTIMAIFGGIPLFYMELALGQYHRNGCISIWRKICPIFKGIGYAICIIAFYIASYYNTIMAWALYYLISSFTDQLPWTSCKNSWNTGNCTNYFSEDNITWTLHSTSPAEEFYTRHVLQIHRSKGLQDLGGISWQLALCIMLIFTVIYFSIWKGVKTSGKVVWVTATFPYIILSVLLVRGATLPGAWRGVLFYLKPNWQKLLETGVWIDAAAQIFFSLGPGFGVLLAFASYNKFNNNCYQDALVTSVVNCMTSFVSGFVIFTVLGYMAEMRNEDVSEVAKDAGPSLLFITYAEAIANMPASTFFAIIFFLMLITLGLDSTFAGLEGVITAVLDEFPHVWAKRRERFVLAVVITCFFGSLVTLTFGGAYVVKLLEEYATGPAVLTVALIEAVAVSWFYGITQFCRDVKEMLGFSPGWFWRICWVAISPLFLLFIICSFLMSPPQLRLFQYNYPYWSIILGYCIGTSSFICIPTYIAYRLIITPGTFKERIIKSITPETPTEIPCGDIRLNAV
dopamine reuptake transporter (DAT), sequence (Q01959 whole entry, species assumed): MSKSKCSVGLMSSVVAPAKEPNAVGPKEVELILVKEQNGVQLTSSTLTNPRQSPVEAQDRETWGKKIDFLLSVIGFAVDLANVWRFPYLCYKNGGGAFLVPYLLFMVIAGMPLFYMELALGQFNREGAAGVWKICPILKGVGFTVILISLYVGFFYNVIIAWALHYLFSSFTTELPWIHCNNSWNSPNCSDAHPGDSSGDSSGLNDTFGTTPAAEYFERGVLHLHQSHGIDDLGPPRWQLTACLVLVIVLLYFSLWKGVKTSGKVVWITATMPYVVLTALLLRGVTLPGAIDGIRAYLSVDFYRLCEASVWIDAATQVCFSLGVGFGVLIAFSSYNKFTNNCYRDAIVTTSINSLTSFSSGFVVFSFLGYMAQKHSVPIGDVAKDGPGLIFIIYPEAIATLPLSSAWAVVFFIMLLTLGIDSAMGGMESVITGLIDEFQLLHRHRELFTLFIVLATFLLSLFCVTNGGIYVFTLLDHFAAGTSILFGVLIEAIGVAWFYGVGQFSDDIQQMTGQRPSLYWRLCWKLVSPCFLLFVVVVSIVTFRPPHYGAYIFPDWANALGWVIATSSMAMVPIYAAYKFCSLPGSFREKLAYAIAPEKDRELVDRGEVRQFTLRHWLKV
norepinephrine reuptake transporter (NET), sequence (P23975 whole entry): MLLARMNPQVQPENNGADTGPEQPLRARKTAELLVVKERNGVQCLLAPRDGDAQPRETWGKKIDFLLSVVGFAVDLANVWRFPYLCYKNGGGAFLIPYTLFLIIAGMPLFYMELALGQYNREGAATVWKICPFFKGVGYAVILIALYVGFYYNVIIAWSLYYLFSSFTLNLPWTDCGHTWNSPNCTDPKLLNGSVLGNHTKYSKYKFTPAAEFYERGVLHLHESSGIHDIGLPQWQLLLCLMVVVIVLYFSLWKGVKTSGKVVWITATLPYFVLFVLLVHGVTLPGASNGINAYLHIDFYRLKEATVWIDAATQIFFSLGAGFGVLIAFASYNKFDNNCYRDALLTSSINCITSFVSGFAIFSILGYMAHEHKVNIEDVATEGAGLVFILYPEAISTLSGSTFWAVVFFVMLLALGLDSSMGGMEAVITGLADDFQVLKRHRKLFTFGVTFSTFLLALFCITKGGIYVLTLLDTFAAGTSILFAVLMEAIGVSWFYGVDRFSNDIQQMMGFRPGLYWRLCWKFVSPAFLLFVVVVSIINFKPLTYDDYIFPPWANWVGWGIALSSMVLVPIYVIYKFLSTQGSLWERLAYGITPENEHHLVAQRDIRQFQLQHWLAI

c1ccc2cc([C@]34CNC[C@H]3C4)ccc2c1 [Centanafadine, (1R,5S)-1-(naphthalen-2-yl)-3-azabicyclo[3.1.0]hexane]
potency towards SERT relative to NET [1]: one-fourteenth
BSC classification [2]: Class I
solubility [2]: highly soluble
permeability ([2]; not told): highly permeable
safety and tolerability, rate of adverse events (AEs) [3]: generally safe and well tolerated
potency towards NET [4]: most potency
mean decrease of primary efficacy measures (MADRS Total score) (adult subjects with MDD [5]; 6 weeks combination therapy (centanafadine XR 328.8 mg + escitalopram 10-20 mg QD) vs escitalopram monotherapy): greater
efficacy as adjunct therapy to SSRI (escitalopram) in patients with MDD (adult subjects with MDD [5]; centanafadine XR 328.8 mg + escitalopram, 6 weeks): effective as an adjunct therapy
potency towards DAT relative to NET [6]: one-sixth
SF-36v2 general scores from baseline (adult subjects with MDD [7]; 6 weeks): Increased
efficacy as monotherapy in patients with MDD (adult subjects with MDD [7]; 6 weeks): effective as monotherapy
risk for depression (SF-36v2) (adult subjects with MDD [7]; 6 weeks): reduced
CGI-C scores (adult subjects with MDD [7]; 6 weeks, vs placebo): significant reductions
CGI-S scores from baseline (adult subjects with MDD [7]; 6 weeks, vs placebo): significant reductions
PGI-C scores (adult subjects with MDD [7]; 6 weeks, vs placebo): significant reductions
PGI-S scores from baseline (adult subjects with MDD [7]; 6 weeks, vs placebo): significant reductions
primary efficacy measures (MADRS Total score) (adult subjects with MDD [7]; after 6-week double-blind treatment, vs placebo): significantly reduces

c1ccc2cc([C@]34CNC[C@H]3C4)ccc2c1 [Centanafadine HCl]
AUC ratio ([8]; 164.4 mg): 0.98
Cmax ratio ([8]; 164.4 mg): 1.13
Tmax ([8]; 328.8 mg, Fifth Day): 5.00 h
AUC ratio ([8]; 328.8 mg): 1.16
Cmax ratio ([8]; 328.8 mg): 1.31
Cmax [8, 10]: 0.709 µg/mL
AUC(0-t) [8, 10]: 6.65 µg·h/mL
Cmax [8, 11]: 0.651 µg/mL
AUC(0-t) [8, 11]: 6.57 µg·h/mL
AUC(0-t) ([8]; human, plasma, 328.8 mg, Fifth Day): 18.4 µg·h/mL
AUC(0-t) [8, 12]: 16 µg·h/mL
concentration at 1 h [8, 13]: 0.427 µg/mL
concentration at 12 h [8, 13]: 0.276 µg/mL
concentration at 16 h [8, 13]: 0.103 µg/mL
Tmax ([8]; human, plasma, oral, 164.4 mg, Fifth Day, read-out: tmax): 5.5 h
concentration at 1 h [8, 14]: 0.358 µg/mL
concentration at 12 h [8, 14]: 0.289 µg/mL
concentration at 16 h [8, 14]: 0.133 µg/mL
Tmax ([8]; human, plasma, oral, 164.4 mg, First Day, read-out: tmax): 7 h
Cmax [8, 15]: 2.23 µg/mL
concentration at 1 h [8, 15]: 0.718 µg/mL
concentration at 12 h [8, 15]: 0.646 µg/mL
concentration at 16 h [8, 15]: 0.211 µg/mL
Cmax [8, 16]: 1.94 µg/mL
concentration at 1 h [8, 16]: 0.64 µg/mL
concentration at 12 h [8, 16]: 0.75 µg/mL
concentration at 16 h [8, 16]: 0.306 µg/mL
Tmax ([8]; human, plasma, oral, 328.8 mg, First Day, read-out: tmax): 4 h
AUC(0-inf) [8, 11]: 7.11 µg·h/mL
AUC(0-inf) [8, 12]: 16.7 µg·h/mL
AUC0-24 h [9]: 5.29 µg·h/mL
C1 hr [9]: 0.302 µg/mL and 0.321 µg/mL and 0.358 µg/mL
C12 hr [9]: 0.186 µg/mL and 0.22 µg/mL and 0.289 µg/mL
Cmax [9]: 0.618 µg/mL and 0.629 µg/mL
Tmax ([9]; human, oral, read-out: tmax): 4 to 7.5 h
AUC(0-inf) ([9]; human, oral, n = 11, read-out: AUC0-inf): 5 to 8 µg·h/mL
AUC(0-t) ([9]; human, oral, read-out: AUC0-1 h): 0.15 to 0.5 µg·h/mL
AUC(0-t) ([9]; human, oral, read-out: AUC0-24 h): 4.5 to 7.5 µg·h/mL
Cmax ([9]; human, oral, read-out: Cmax): 0.5 to 0.7 µg/mL
Tmax [9]: 4.5 h and 5 h
AUC(0-inf) ([9]; n = 11): 6.24 µg·h/mL and 7.11 µg·h/mL

From patent publication US20250375418A1, “1-(NAPHTHALEN-2-YL)-3-AZABICYCLO[3.1.0]HEXANE FOR TREATING MAJOR DEPRESSIVE DISORDER” (OTSUKA PHARMACEUTICAL CO., LTD., priority 2022, published 2025)
